Tests used:
HCT116 [1] = test: efficacy (fitted maximal change in viability relative to DMSO control); higher = less cytotoxic (negative = loss of viability); settings: 48 h
HCT116 [2] = test: AC50 cell viability (CellTiter-Glo); higher = less potent; settings: 48 h
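For AC50 cell viability (CellTiter-Glo) in this document: HCT116 colorectal carcinoma cells screened at five concentrations per compound, luminescent viability scaled between DMSO wells and empty wells on each plate, curves fitted per compound.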
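For efficacy (fitted maximal change in viability relative to DMSO control) in this document: Luminescence-based viability readout, five doses per compound, normalized against on-plate DMSO and empty-well controls, followed by dose-response curve fitting for every drug.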

Compound	efficacy (HCT116 [1])	AC50 cell viability (HCT116 [2])
CCN(CC)CCNc1ccc(C)c2sc3ccccc3c(=O)c12 [Lucanthone]	-119%	14.8 µM
CNC(=O)c1cccc2cc(Oc3ccnc4cc(OCC5(N)CC5)c(OC)cc34)ccc12 [Lucitanib]	-96.6%	14.8 µM
COc1ccc2[nH]c3c(c2c1)CCN[C@]31CS[C@@H]2c3c(OC(C)=O)c(C)c4c(c3[C@H](COC1=O)N1[C@@H]2[C@H]2c3c(cc(C)c(OC)c3O)C[C@@H]([C@@H]1O)N2C)OCO4 [Lurbinectedin]	-72.4%	0.00539 µM
NC(=O)c1cccc2c(NC(CN3CCC3)c3ccc(Cl)c(C(F)(F)F)c3)ncnc12 (stereo not drawn) [M2698]	-116%	10.5 µM
CCCCOC(=O)N[S+](=O)([O-])c1sc(CC(C)C)cc1-c1ccc(Cn2ccnc2)cc1 [M-024]	-84.4%	18.6 µM
CN(C)c1ccc(C(=O)NCCCCCCC(=O)NO)cc1 [M-344]	-84.5%	0.742 µM
Cn1cc(/C=C/C(=O)c2cccc(F)c2)cc1/C=C/C(=O)NO [MC-1568]	-49.8%	14.8 µM
CC1(N2CCC(n3c([C@@H]4CCCNC4)nc4ccccc43)CC2)CCCCCCC1 [MCOPPB]	-82.3%	9.34 µM
OC(c1cc(C(F)(F)F)nc2c(C(F)(F)F)cccc12)C1CCCCN1 (stereo not drawn) [MEFLOQUINE]	-109%	20.9 µM
CCC[C@@H](C=O)NC(=O)[C@H](CC(C)C)NC(=O)[C@H](CC(C)C)NC(=O)OCc1ccccc1 [MG-115]	-93.3%	0.661 µM
CC(C)C[C@@H](C=O)NC(=O)[C@H](CC(C)C)NC(=O)[C@H](CC(C)C)NC(=O)OCc1ccccc1 [MG-132]	-89.4%	0.468 µM
CCCCCCCc1ccc(CCc2cccc(O)c2C(=O)O)cc1 [MG-149]	-42.3%	18.6 µM
Cn1cnc(-c2cc3nccc(Oc4ccc(NC(=S)NC(=O)Cc5ccccc5)cc4F)c3s2)c1 [MGCD-265]	-59.3%	16.6 µM
COCCOc1nc(-c2ccc(Cl)c(Cl)c2)n(-c2ccc(NC(=O)CCl)cc2)n1 [MI-2]	-63.7%	18.6 µM
Cc1c(CN2CCC(Nc3ncnc4sc(CC(F)(F)F)cc34)CC2)ccc2c1cc(C#N)n2Cc1cn[nH]c1 [MI-503]	-76%	3.72 µM
N#Cc1cc2cc(CN3CCC(Nc4ncnc5sc(CC(F)(F)F)cc45)CC3)c(O)cc2n1Cc1cn[nH]c1 [MI-538]	-111%	13.2 µM
CN1CCN(c2ccc3nc(-c4cc(C(C)(C)C)c(OCCCC(=O)NCCCN=[N+]=[N-])c(C(C)(C)C)c4)[nH]c3c2)CC1 [MIR96-IN-1]	-98.9%	8.33 µM
CC(C)(C)Sc1c(CC(C)(C)C(=O)O)n(Cc2ccc(Cl)cc2)c2ccc(OCc3ccc4ccccc4n3)cc12 [MK591]	-88.4%	20.9 µM
CC(C)c1ccc2c(c1)c(SC(C)(C)C)c(CC(C)(C)C(=O)[O-])n2Cc1ccc(Cl)cc1 [MK-886]	-83.3%	20.9 µM
C=CCn1c(=O)c2cnc(Nc3ccc(N4CCN(C)CC4)cc3)nc2n1-c1cccc(C(C)(C)O)n1 [MK-1775]	-73.8%	0.742 µM
NC1(CCC1)C2=CC=C(C=C2)C3=C(C=C/4C(=N3)\C=C/N5C(=O)N\N=C45)C6=CC=CC=C6 [MK-2206]	-122%	16.6 µM
CN(C[C@@H]1COCCO1)[S+]([O-])(=O)NC2=CC3=C(C=C2)\C=C/C4=C(C=C(C=N4)C5=C[N](C)N=C5)C3=O [MK-2461]	-103%	18.6 µM
O=C(O)C1(Cc2cccc(Nc3nccs3)n2)CCC(Oc2cccc(Cl)c2F)CC1 (stereo not drawn) [MK-5108]	-34.3%	0.833 µM
C[N]1C=C(C=N1)C2=CN=C3\C=C/C4=CC=C(C[S+]([O-])(=O)NCC5=NC=CC=C5)C=C4C(=O)C3=C2 [MK-8033]	-65.9%	16.6 µM
Cn1cc(-c2cnn3c(N)c(Br)c(C4CCCNC4)nc23)cn1 (stereo not drawn) [MK-8776]	-113%	10.5 µM
C[N]1C=C(C2=CC=CC=C12)/C3=C(/C(=O)NC3=O)C4=C[N](C)C5=CC(=CC=C45)[N+]([O-])=O [MKC-1]	-87.5%	1.86 µM
CCC1CCCCN1C(=O)n1ncc(C(O)(c2ccccc2)c2ccccc2)n1 (stereo not drawn) [ML226]	-62.9%	11.8 µM
CN(C(=O)CNC(=O)/C=C/c1cccc(Cl)c1)C1CC[S+](=O)([O-])CC1 (stereo not drawn) [ML264]	-92.4%	0.742 µM
Cc1cnc(-c2ccccc2C(C)C)nc1NCc1ccc(-n2ccnn2)cc1 [ML323]	-34.2%	0.118 µM
